Source: patent publication US8257700B2, “Proteomic analysis of active multiple sclerosis lesions” (The Board of Trustees of the Leland Stanford Junior …, priority 2008, dated 2012)

Legend:
EAE mice = assay: EAE induced with PLP139-151 in SJL/J mice, daily clinical score; type: in vivo, mouse (SJL/J); settings: for clinical status (mean clinical score), time of amelioration: recombinant human aPC variants 0.46 mg/kg daily i.v. from maximal paralysis until day 30, vs PBS
Protocol: EAE induction, treatment with hirudin, aPC (WT and mutants), proliferation assays, cytokine analysis and quantitative histopathology. Mice were maintained in the Research Animal Facility at Stanford University. EAE was induced in 7-8 week old SJL/J female mice by subcutaneous immunization with 100 μg PLP139-151 in emulsion. For hirudin or aPC treatment, EAE mice (n=10/group) were treated with daily intravenous injection of hirudin (10 mg/kg) or mouse recombinant aPC-WT (0.2 mg/kg) at the peak of disease and compared with PBS treated group. Mice were assessed daily for clinical signs of EAE and scored according to: 0, no clinical disease; 1, tail weakness; 2, hindlimb weakness; 3, complete hindlimb paralysis; 4, hindlimb paralysis and some forelimb weakness; 5, moribund or dead.
Recombinant human aPC-WT and mutants (aPC-L8W and aPC-K193E) were prepared as described by Grinnell et al (2007) Critical Care Medicine (suppl). These aPC variants have the following properties on aPTT and PAR-1 signaling function: aPC-WT: aPTT (relative activity)=1, PAR-1 (relative activity)=1, aPC-L8W: aPTT=1, PAR-1=0.02 and aPC-K193E: aPTT=0.03, PAR-1=1. EAE mice (n=7/group) were treated with daily intravenous injection of recombinant human aPC-WT, aPC-L8W, aPC-K193E (0.46 mg/kg) or PBS (control group) at the time of maximal paralysis and assessed daily until day 30.

rheumatoid arthritis = settings: cited from earlier work
[1] = system: splenocytes and lymph node cells; assay: In vitro proliferation (3H-thymidine) of splenocytes and lymph node cells from treated EAE mice, activated with PLP peptide; type: cell-based, mouse (SJL/J)
Protocol: (§1) In vitro immune cell proliferation and cytokine analysis were performed as previously described (Ousman et al. (2007) Nature 448, 474-9). Briefly, splenocytes and lymph node cells harvested from EAE experiments were cultured in flat-bottomed, 96-well plates at a concentration of 0.5×10^6 cells/well in stimulation media (RPMI 1640 supplemented with 2 mM L-glutamine, 1 mM sodium pyruvate, 0.1 mM non-essential amino acids, 100 U/ml^2 Penicillin, 0.1 mg/ml^2 streptomycin, 0.5 μM 2-mercaptoethanol and 10% fetal calf serum) and activated with PLP139-151 peptide (5-20 μg/ml). To determine proliferation rates, cultures were pulsed with (^3H)-Thymidine (1 μCi per well) following 72-hour culture and harvested 18 hours later onto filter paper. The counts per minute (cpm) of incorporated ^3H-Thymidine were read using a beta counter. Cytokine levels (IL-2, IL-4, IL-6, IL-10, IL-12p40, IL-17, IFN-γ, TNF) were measured from the supernatant of cultured cells using anti-mouse OPTEIA ELISA kits (BD Pharmigen).

purified T cells = assay: Purified T cell activation with CD3/CD28, cytokine ELISA; type: cell-based, mouse (SJL/J); settings: 30 nM recombinant murine aPC pre-treatment, CD3/CD28 5 μg/ml
Protocol: In vitro Immune cell activation assays and cytokine analysis. T lymphocytes were isolated from pooled splenocytes and lymph node cells from 8 week-old naïve SJL/J mice by negative selection (Pan T cell isolation kit, Miltenyi Biotech). Cells were pre-treated with 30 nM recombinant murine aPC for 15 mins at 37° C. followed by activation with CD3/CD28 (5 μg/ml) coated on 12 well plates. Cells were cultured at 5×10^6 cells/ml concentration in stimulation media. Culture plates were harvested at different time points (15 min-96 hours) and cytokine levels were measured from culture supernatant by ELISA.

NF-κB signalling (IκB-α) = assay: Western blot of IκB-α in T cells (NF-κB activation); type: cell-based, mouse (SJL/J); settings: T cells treated with murine aPC, cell activation assay
Protocol: Western blot analysis. For NF-κB activation, total cell lysate from purified T cells treated with aPC were analyzed by SDS-PAGE, transferred to PVDF membrane, probed with antibodies against IκB-α, and β-actin and the signal was visualized by enhanced chemiluminescence.

[2] = system: splenocytes and lymph node cells; assay: Cytokine production (ELISA) of splenocytes and lymph node cells from treated EAE mice; type: cell-based, mouse (SJL/J)
Protocol: as §1

[3] = system: brain and spinal cord of EAE mice; assay: Quantitative histopathology: inflammatory foci in brain and spinal cord of EAE mice; type: in vivo, mouse (SJL/J)
Protocol: For histopathological analysis, brains and spinal cord of EAE mice were fixed in 10% formaldehyde. […] paraffin sections were stained with LFB and H&E and the number of inflammatory foci within the brain and spinal cord were quantified by a neuropathologist who was blinded to the treatment and clinical parameters of the mice.

primary astrocytes = assay: Primary astrocyte activation with LPS, cytokine ELISA; type: cell-based, mouse (SJL/J); settings: 30 nM recombinant murine aPC pre-treatment, LPS 100 ng/ml
Protocol: Astrocyte culture. Astrocytes were cultured from brain of one-day-old SJL/J pups as described previously. Briefly, the cerebral cortices from pups were minced, cells were disrupted by passing through a filter and cultured in complete DMEM. Purified astrocytes (50-80% confluent) were treated with 30 nM recombinant murine aPC for 15 minutes and activated with 100 ng/ml LPS (Sigma). Cells were harvested at 4, 24, 48 and 72-hours, and supernatant were analyzed by ELISA for cytokine production.

[4] = system: primary peritoneal macrophages; assay: Peritoneal macrophage activation with LPS, cytokine ELISA; type: cell-based, mouse (SJL/J); settings: 30 nM recombinant murine aPC pre-treatment, LPS 100 ng/ml
Protocol: Primary peritoneal macrophages were isolated from naïve 8-9 weeks old SJL/J mice following intraperitoneal injection of thioglycollate (BD Diagnostic Systems) and cultured in complete medium (DMEM supplemented with 10% fetal bovine serum, 1 mM sodium pyruvate, […] and 0.1 mg/ml streptomycin). Cells (1×10^6 cells/ml) were treated with 30 nM recombinant murine aPC for 15 minutes, then activated with LPS 100 ng/ml (Sigma), harvested at different time points (15 min-72 hours), and cytokine levels were measured.

[5] = Anti-hirudin antibodies in serum of treated EAE mice; type: in vivo, mouse; settings: EAE mice treated with hirudin
PAR-1 = molecular target: T1, PAR-1 (Homo sapiens, UniProt P25116); settings: cited from earlier work
T1 sequence (P25116 22-425): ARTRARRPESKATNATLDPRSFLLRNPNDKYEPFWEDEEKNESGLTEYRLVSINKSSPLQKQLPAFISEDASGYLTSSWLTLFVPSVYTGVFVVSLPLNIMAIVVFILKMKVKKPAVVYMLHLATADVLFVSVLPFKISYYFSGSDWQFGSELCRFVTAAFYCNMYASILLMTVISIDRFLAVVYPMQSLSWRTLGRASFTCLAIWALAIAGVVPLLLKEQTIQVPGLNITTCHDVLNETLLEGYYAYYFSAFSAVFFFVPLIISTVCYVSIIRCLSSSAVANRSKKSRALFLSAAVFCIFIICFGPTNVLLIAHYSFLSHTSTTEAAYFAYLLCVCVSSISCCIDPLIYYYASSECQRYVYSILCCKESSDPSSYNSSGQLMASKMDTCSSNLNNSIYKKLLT

aPTT = settings: cited from earlier work; for aPTT (relative activity): relative to aPC-WT
[6] = system: MS relapses and active EAE; settings: during MS relapses and active EAE; cited from earlier work
[7] = cells from aPC-treated vs PBS-treated mice
[8] = hirudin 10 mg/kg daily i.v. from peak of disease
[9] = cells from hirudin-treated vs vehicle-treated mice

With “aPC-WT: recombinant human activated protein C wild type” the “clinical status (mean clinical score), time of amelioration” value (from here on “clinical status (mean clinical score)”) (EAE mice) was “improvement in the latter part of disease course (days 25-30)”.

In the case of `CN(Cc1cnc2nc(N)nc(N)c2n1)c1ccc(C(=O)N[C@@H](CCC(=O)O)C(=O)O)cc1` [MTX, Methotrexate], the “patients having some response” value (rheumatoid arthritis) is given as 70% and the onset of action (rheumatoid arthritis; patients) is given as 4-6 weeks.

With “aPC: recombinant murine activated protein C, provided by Lilly Research Laboratories” the “immune cell proliferation in splenocytes and lymph node cells” value [1, 7] was “decreased immune cell proliferation”, the IL17 levels (purified T cells) was “low levels” and the IκB breakdown (NF-κB signalling (IκB-α)) was “less IκB breakdown”. The relapse rates (EAE mice; recombinant murine aPC 0.2 mg/kg) was “no effect”, the “disease severity (mean clinical score)” value (EAE mice; recombinant murine aPC 0.2 mg/kg daily i.v. from peak of disease vs PBS) was “significant amelioration of disease severity” and the “Th1 and Th17 cytokines” value [2, 7] was “inhibition”. The “inflammatory foci in the CNS tissue” value ([3]; aPC-treated vs PBS) was “fewer inflammatory foci”, the IL6 production (primary astrocytes) was “less” and the IL17 production (primary astrocytes) was “less”. For the same compound, the IL6 production [4] was “less” and the IL17 production [4] was “less”.

In the case of “hirudin: thrombin inhibitor hirudin (Refludan, recombinant lepirudin, Berlex)”, the immune cell proliferation ([1]; cells from hirudin-treated vs PBS-treated mice, PLP activated) is reported as “decreased immune cell proliferation”, the “anti-hirudin antibodies in serum” value [5] is reported as “presence of anti-hirudin antibodies” and the disease course (EAE mice; [8]) is reported as “no effect”. The relapse rates (EAE mice; [8]) was “no effect”, the “disease severity (mean clinical score)” value (EAE mice; hirudin 10 mg/kg daily i.v. from peak of disease vs PBS) was “dramatic improvement of disease severity” and the “time up to which amelioration of EAE was observed” value (EAE mice; hirudin treatment) was ≤ 35 days. The IL4 production [2, 9] was “no differences”, the IL-6 production [2, 9] was “suppression” and the IL-10 production [2, 9] was “no differences”. The IL-12 production [2, 9] was “no differences”, the IL-17 production [2, 9] was “suppression” and the “interferon-γ (IFN-γ) production” value [2, 9] was “no differences”. For the same compound, the “tumor necrosis factor (TNF) production” value [2, 9] was “suppression” and the “inflammatory foci in brains and spinal cords” value ([3]; hirudin-treated vs PBS) was “fewer inflammatory foci”.

In the case of “aPC-L8W: recombinant human aPC mutant; retains anticoagulant properties but lacks PAR-1 signalling, defective EPCR interaction at L8”, the “clinical status (mean clinical score)” value (EAE mice) is listed as “significant amelioration early in the disease course (days 20-25)”, the “PAR-1 signalling (in words)” value (PAR-1) is listed as “lacks PAR-1 signalling” and the “anticoagulant properties (in words)” value (aPTT) is listed as “retains anticoagulant properties”. The “aPTT (relative activity)” value (aPTT) was 1.

In the case of “aPC-K193E: recombinant human aPC mutant; mainly participates in PAR-1 signalling and lacks anticoagulant activities”, the “clinical status (mean clinical score)” value (EAE mice) is listed as “significant amelioration early in the disease course (days 20-25)”, the “PAR-1 signalling (in words)” value (PAR-1) is listed as “mainly participates in PAR-1 signalling” and the “anticoagulant properties (in words)” value (aPTT) is listed as “lacks anticoagulant activities”. For the same compound, the “aPTT (relative activity)” value (aPTT) was 0.03.

In the case of Heparin, the symptoms [6] is listed as “improve symptoms”.
